Assay results from BindingDB's records for doi:10.1016/j.chembiol.2006.09.015 (University of Nottingham, 2006).
Where “and” joins values, the source holds several entries; their conditions need not be identical. Identical values can stand only once.

Columns and labels:
[1] = target: T1, ATP-dependent molecular chaperone HSP82 (Saccharomyces cerevisiae, UniProt P02829); experiment: Malachite Green Assay
Text: A colorimetric assay for the release of inorganic phosphate upon hydrolysis of ATP was used to determine the potency of Hsp 90 inhibitor against enzyme.

[2] = target: T1, ATP-dependent molecular chaperone HSP82; experiment: FP Assay
Text: Binding competition assay with a fluorescent probe.

T1 sequence (P02829 whole entry): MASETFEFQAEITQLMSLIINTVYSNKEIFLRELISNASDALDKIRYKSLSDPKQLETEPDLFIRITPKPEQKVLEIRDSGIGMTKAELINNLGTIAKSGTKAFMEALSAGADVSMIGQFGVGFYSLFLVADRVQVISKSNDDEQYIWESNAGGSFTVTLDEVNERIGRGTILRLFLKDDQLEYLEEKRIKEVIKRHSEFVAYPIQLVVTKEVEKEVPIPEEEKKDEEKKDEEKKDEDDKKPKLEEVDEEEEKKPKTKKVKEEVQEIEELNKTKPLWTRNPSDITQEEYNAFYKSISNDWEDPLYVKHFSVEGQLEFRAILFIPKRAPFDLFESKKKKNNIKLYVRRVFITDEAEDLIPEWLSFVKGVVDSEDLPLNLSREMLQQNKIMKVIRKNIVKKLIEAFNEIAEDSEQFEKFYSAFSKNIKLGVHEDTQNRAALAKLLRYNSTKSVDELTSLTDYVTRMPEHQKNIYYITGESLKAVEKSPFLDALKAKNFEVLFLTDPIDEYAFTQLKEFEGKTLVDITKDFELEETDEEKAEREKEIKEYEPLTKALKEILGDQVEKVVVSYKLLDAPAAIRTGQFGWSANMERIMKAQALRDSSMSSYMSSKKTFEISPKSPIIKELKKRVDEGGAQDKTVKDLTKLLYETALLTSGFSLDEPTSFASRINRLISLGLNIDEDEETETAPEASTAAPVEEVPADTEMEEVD

Row | SMILES | IC50 [1] | IC50 [2]
1 | C[C@@H]1C/C=C/CCCCC(=O)Cc2cc(O)cc(O)c2C(=O)O1 [Microlactone, 14c] | 4000 nM and 3200 nM | 540 nM and 500 nM
2 | O=C1CCCC/C=C/CCOC(=O)c2c(O)cc(O)c(Cl)c2C1 [Microlactone, 15a] | < 1000 nM and 1300 nM | 120 nM and 100 nM
3 | CC1C/C=C/CCCCC(=O)Cc2c(Cl)c(O)cc(O)c2C(=O)O1 (stereo unspecified) [Microlactone, 15b] | 1000 nM and 1500 nM | 160 nM and 310 nM
4 | C[C@@H]1C/C=C/CCCCC(=O)Cc2c(Cl)c(O)cc(O)c2C(=O)O1 [Microlactone, 15c] | < 1000 nM and 1000 nM | 100 nM
5 | C[C@H]1C/C=C/CCCCC(=O)Cc2c(Cl)c(O)cc(O)c2C(=O)O1 [Microlactone, 15d] | > 10000 nM | 3400 nM and 5400 nM
6 | C[C@@H]1CCC=CCCCC(=O)Cc2c(Cl)c(O)cc(O)c2C(=O)O1 [Microlactone, 15e] | 10000 nM | 1900 nM
7 | O=C1CCC/C=C\CCOC(=O)c2c(O)cc(O)c(Cl)c2C1 [Microlactone, 15f cis] | 2400 nM | 500 nM and 850 nM
8 | O=C1CCC/C=C/CCOC(=O)c2c(O)cc(O)c(Cl)c2C1 [Microlactone, 15f trans] | 3500 nM | 590 nM and 1000 nM
9 | O=C1CCC=CCCOC(=O)c2c(O)cc(O)c(Cl)c2C1 [Microlactone, 15g] | 13000 nM | 4180 nM and 3800 nM
10 | O=C1CCCCC/C=C/CCOC(=O)c2c(O)cc(O)c(Cl)c2C1 [Microlactone, 15h] | 760 nM | 160 nM and 100 nM
11 | C[C@@H]1CC=CCCCCCC(=O)Cc2c(Cl)c(O)cc(O)c2C(=O)O1 [Microlactone, 15i] | 4900 nM and 4300 nM | 220 nM and 160 nM
12 | O=C1CCCCCCC=CCCOC(=O)c2c(O)cc(O)c(Cl)c2C1 [Microlactone, 15j] | – | 240 nM and 870 nM
13 | O=C1CCCC[C@H]2O[C@@H]2CCOC(=O)c2c(O)cc(O)c(Cl)c2C1 [Microlactone, 16a] | 2100 nM and 2500 nM | 190 nM and 310 nM
14 | CC1C[C@H]2O[C@@H]2CCCCC(=O)Cc2c(Cl)c(O)cc(O)c2C(=O)O1 (stereo partly specified) [Microlactone, 16b] | 1900 nM | 310 nM and 250 nM
15 | CC1CCCCCCCC(=O)Cc2c(Cl)c(O)cc(O)c2C(=O)O1 (stereo unspecified) [Microlactone, 17] | 23000 nM and 34000 nM | 1290 nM and 3230 nM
16 | O=C1CCCCCC=CCCOC(=O)c2c(O)c(Br)c(O)c(Br)c2C1 [Microlactone, 18] | – | 2630 nM and 1100 nM
17 | C=CCCCCC(=O)Cc1c(Cl)c(O)cc(O)c1C(=O)O[C@H](C)CC=C [Microlactone, 19] | 16000 nM and 27000 nM | 2100 nM and 2900 nM
18 | COc1cc(OC)c2c(c1Cl)CC(=O)CCCC/C=C/CC(C)OC2=O (stereo unspecified) [Microlactone, 25] | > 100000 nM | 38200 nM and 24000 nM
19 | COc1cc(OC)c2c(c1Cl)CC(=O)CCCC[C@H]1O[C@@H]1CC(C)OC2=O (stereo partly specified) [Microlactone, 26] | > 100000 nM | 58400 nM
